# pIC50: −log10 of the molar value.
# Key:
# PDE IV = PDE IV inhibition (in vitro), cAMP-specific PDE of cytosol of human polymorphonuclear leucocytes; assay type: biochemical; settings: substrate 0.5 μM cAMP, motapizon 1 μM
# Description: (§1) Phosphodiesterase (PDE) activity is determined with a few modifications (Bauer, A. C.; Schwabe, U., An improved assay of cyclic 3',5'-nucleotide phosphodiesterase with QAE Sephadex A-25. Naunyn-Schmiedeberg's Arch. Pharmacol. 311 193-198 (1980)) after the method described by Thompson et al. (Thompson, W. J.; Appleman, M. M., Assay of cyclic nucleotide phosphodiesterase and resolution of multiple molecular forms of the enzyme. Adv. Cycl. Nucl. Res. 10 69-92 (1979)) The reaction mixture contains 40 mM Tris-HCl (pH 7.4), 5 mM MgCl2, 0.5 μM cAMP or cGMP, [^3 H]cAMP or [^3 H]cGMP (approx. 20,000 cpm/test) and the other components needed to record the individual isoenzymes (see below). The final volume is 200 μl. Test substances are prepared as stock solutions in DMSO. The DMSO concentration in the reaction mixture is the same or less than 1% v/v. The PDE activity is not influenced at this DMSO concentration. […] The radioactivity of the individual fractions is recorded using scintigraphy.
# The PDE IV (cAMP-specific) activity is determined after the method described by Schudt et al. (Schudt C.; Winter S.; Forderkurz S.; Hatzelmann A.; Ullrich V., Influence of selective phosphodiesterase inhibitors on human neutrophil functions and levels of cAMP and Ca. Naunyn-Schmiedeberg's Arch. Pharmacol. 344, 682-690 (1991)) describe a method in the cytosol of human polymorpho-nuclear leucocytes. […]
# PDE V = target: T1, PDE V (Homo sapiens, UniProt O76074); test: PDE V inhibition (in vitro), cGMP-specific PDE isolated from human blood platelets; assay type: biochemical; settings: substrate 0.5 μM cGMP
# T1 construct: PDE V (cGMP-specific) is isolated from human blood platelets; from tissue; host or cells: human blood platelets
# Description: as §1, with “concentration. After pre-incubation for 5 minutes at 37° C. the reaction is started by adding the substrate (cAMP or cGMP). The samples are incubated for a further 15 minutes at 37° C. The reaction is stopped by adding 50 μl 0.2N HCl. The samples remain in the ice for a further 10 minutes.” for “concentration.”, “scintigraphy. […]” for “scintigraphy.”
# [1] = test system: Histamine precontracted trachea; test: Influence on the trachea precontracted using histamine; settings: Cavia porcellus, guinea pig trachea
# Description: Guinea pigs are exsanguinated under narcosis. The trachea is then prepared free from adjacent tissue and cut into five equal parts (at least 3 trachea-rings wide). The trachea parts are suspended in a bath filled with a nutrient solution (Krebs-Henseleit). The strength of contraction of the trachea can be measured using force transducers. After suspension, a 15-minute acclimatisation period is allowed. The trachea is then totally relaxed using isoprenaline (1×10^-7 mol/l). The bath vessel is then rinsed. A contraction maximum is triggered using metacholine (10×10^-5 mol/l). The bath vessel is then rinsed again. Histamine ([…]) is then added. The contraction maximum is reached after approx. 10 minutes. The test substance is then added to the bath in increasing concentration and the contraction-triggering effect determined in percent to an untreated control. The mean contraction-triggering concentration is calculated using regression apparatuses. To check the function of the organs, isoprenaline (1×10^-5 mol/l) is then added to the bath to see whether the organs are still able to relax.
# [2] = test system: Ovalbumin-induced eosinophilia; test: Asthmatic late phase reaction: ovalbumin-induced eosinophilia in guinea pigs (BAL); assay type: in vivo, guinea pig; settings: 1 mg/kg i.p., 2 hours before allergen challenge, BAL 24 hours after
# Description: Male guinea pigs (250-300 g, Pirbright white, Charles River Wiga) are actively sensitised by s.c. injection of ovalbumin (10 μg+100 mg aluminium hydroxide) and boosted 2 weeks later. One week after the boosting (10 μg+100 mg aluminium hydroxide) the animals are exposed of an aerosol of nebulised 0.5 % ovalbumin solution for 20 seconds. 24 hours later, the bronchoalveolar lavage (BAL) is carried out using 2×5 ml sodium chloride solution on animals sacrificed with an overdose of pentobarbital. The lavage liquid is pooled and centrifuged for 10 minutes. The cell pellet is suspended in 1 ml physiological sodium chloride solution and the eosinophils are counted microscopically in a counting chamber using a Becton-Dickinson eosinophil kit. The eosinophils are counted for each guinea pig. The mean value is calculated for each group. The inhibition of the eosinophils for the group treated with substance is obtained using the formula:
# (A-C)-(B-C)/(A-C)×100=% inhibition
# A=Eosinophils in the untreated control group challenged with ovalbumin
# B=Eosinophils in the group treated with the substance and challenged with ovalbumin
# C=Eosinophils in the control group not challenged with ovalbumin
# The substance was applied 2 hours before allergen challenge p,o, (in 1% methocel) or i.p. (in 0.5% methocel). The control groups receive 1% methocel p.o. or 0.5% methocel i.p. 2 hours before allergen challenge.
smiles,measurement,setting,value
"CCCn1c(=O)c2c(C)nc(CC)n2c2nc(OC)ccc21 [embodiment 1, 1-ethyl-8-methoxy-3-methyl-5-propyloimidazo[1,5-a]pyrido[3,2-e]-pyrazinone]",pIC50,PDE IV,7.00
same,pIC50,PDE V,7.02
same,pIC50,[1],6.15
same,Ovalbumin-induced eosinophilia: % inhibition of eosinophils,[2],74%

# — patent publication US5723463A, “Pyrido [3,2-E]pyrazinones with anti-asthmatic action and processes for their manufacture” (ASTA Medica Aktiengesellschaft, priority 1995, dated 1998)
